Results: US7074768B2, “Modified protein kinase A-specific oligonucleotides and methods of their use” (Idera Pharmaceuticals, Inc., priority 1995, dated 2006)

Columns and labels:
[1] = system: ZR75-1 human breast cancer cells; assay: Soft agar growth of ZR75-1 cells; assay type: cell-based
Protocol: (§1) Cells (10^4 cells/well) were seeded in 0.5 ml of 0.3% Difco Noble agar (Difco, Detroit, Mich.) supplemented with complete culture medium. This suspension was layered over 0.5 ml of 0.8% agar-medium base layer in 24 multiwell cluster dishes (Becton Dickinson) and treated with various concentrations of docetaxel (day 0). […] Twelve days after the last treatment, cells were stained with nitroblue tetrazolium (Sigma) and colonies larger than 0.05 mm were counted.
as §1
(§2) Soft agar growth. Cells (10^4 cells/well) were seeded in 0.5 ml of 0.3% Difco Noble agar (Difco, Detroit, Mich.) supplemented with complete culture medium. This suspension was layered over 0.5 ml of 0.8% agar-medium base layer in 24 multiwell cluster dishes (Becton Dickinson) and treated with various concentrations of docetaxel (day 0). The HYB 165 was added after 12 hrs (day 1) and on day 3. Twelve days after the last treatment, cells were stained with nitroblue tetrazolium (Sigma) and colonies larger than 0.05 mm were counted.
as §2, with “508” for “165”, “hrs” for “hrs (day 1)”, “2, 3 and 4. After 12” for “3. Twelve”, “days” for “days after”, “the” for “the last treatment,”
Soft agar growth. Cells (10^4 cells/well) were seeded in 0.5 ml of 0.3% Difco Noble agar (Difco, Detroit, Mich.) supplemented with complete culture medium. […] After 12 days the cells were stained with nitroblue tetrazolium (Sigma) and colonies larger than 0.05 mm were counted.
as §2, with “of” for “of docetaxel (day 0). The”, “or HYB295 every 48 hours for three times. After” for “was added after”, “12” for “12 hrs (day 1) and on day 3. Twelve”, “days” for “days after”, “the” for “the last treatment,”, “(Sigma, St. Louis, Mo.)” for “(Sigma)”
as §2, with “of” for “of docetaxel (day 0). The”, “or HYB508 every 48 hours for three times. After” for “was added after”, “12” for “12 hrs (day 1) and on day 3. Twelve”, “days” for “days after”, “the” for “the last treatment,”, “(Sigma, St. Louis, Mo.)” for “(Sigma)”

[2] = system: LS-174T human colon carcinoma cells; assay: LS-174T tumor growth and antisense treatment; assay type: in vivo, athymic mice; settings: single s.c. dose 1 mg per mouse, FIG. 1
Protocol: LS-174T human colon carcinoma cells (1×10^6 cells) were inoculated subcutaneously (s.c.) into the left flank of athymic mice. A single dose of RIα antisense hybrid (Oligo 165, SEQ ID NO:4), inverted hybrid (Oligo 166, SEQ ID NO:6), or antisense (Oligo 164, SEQ ID NO:1) oligonucleotides or control oligonucleotide (Oligo 169, SEQ ID NO:7); Oligo 168 (SEQ ID NO:5); Oligo 188, (SEQ ID NO:3) as shown in Table 1 (1 mg per 0.1 ml saline per mouse), or saline (0.1 ml per mouse), was injected s.c. into the right flank of mice when tumor size reached 80 to 100 mg, about 1 week after cell inoculation. Tumor volumes were obtained from daily measurement of the longest and shortest diameters and calculation by the formula, 4/3πr^3 where r=(length+width)/4. At each indicated time, two animals from the control and antisense-treated groups were killed, and tumors were removed and weighed.

[3] = system: GEO human colon cancer cells; assay: Soft agar growth of GEO cells; assay type: cell-based
Protocol: as §2, with “Cells” for “Soft agar growth. Cells”, “paclitaxel” for “docetaxel”, “2, 3 and 4. 12” for “3. Twelve”

[4] = system: GEO colon cancer xenografts; assay: GEO colon cancer xenografts in nude mice (tumor growth, survival); assay type: in vivo; settings: single agent
Protocol: We investigated the antitumor activity of HYB 165 (AS RIα) in nude mice bearing GEO colon cancer xenografts, using either the intraperitoneal (i.p.) or the oral route of administration. When established GEO tumors of approximately […] were detectable, groups of 10 mice were treated i.p. with either HYB 165 or a control modified backbone oligonucleotide with a scrambled sequence, at 5 or 10 mg/kg/dose, daily on days 7 to 11 and 14 to 18. […] The control oligonucleotide produced no inhibition at 10 mg/kg/dose.
Following oral administration, modified backbone oligonucleotides (MBOs) are absorbed in the upper and lower part of the GI tract and distributed to major organs (S. Agrawal and R. Zhang, In: Antisense Research and Application, S. T. Crooke, ed.), Handbook of Experimental Pharmacology, Springer, Berlin, p. 525–543 (1998). Therefore, HYB 165 and the control oligonucleotide were administered to GEO tumor-bearing mice as described above, except that HYB 165 and the control oligonucleotide were administered orally.
On day 7 after tumor cell injection, one group of 10 mice was treated with taxol (20 mg/kg/dose, i.p.), and the treatment was repeated every 2 weeks (on day 21 and day 35) for a total of three cycles. Two other groups of mice were treated with either HYB 165 (AS RIα) or a control MBO with a scrambled sequence (10 mg/kg/dose, p.o.), daily for five days (days 8–12). Treatment was repeated every 2 weeks (days 22–26 and days 36–40) for a total of three cycles. Two more groups of mice were treated with taxol and either HYB 165 or the control MBO, administering the taxol (20 mg/kg/dose, i.p.) on day 7, followed by oral administration of either HYB 165 or the control MBO daily for five days (days 8–12). The sequential treatment was repeated with the same schedule every 2 weeks for a total of three cycles.

[5] = system: TGFα; assay: Histochemical analysis of GEO tumors: TGFα; assay type: in vivo; settings: single agent, after two cycles
Source text: (§3) Tumor specimens from the different groups of mice were examined by histochemical analysis at different time points to evaluate the expression of a variety of biological parameters.
(§4) TGFα and AR are growth factors which bind to EGFR and control human colon cancer growth through autocrine and paracrine mechanisms (F. Ciardiello and G. Tortora, Clin. Cancer Res. 4:821–828 (1998); D. S. Salomon, Crit. Rev. Oncol. Hematol. 19:183–232 (1995)).

[6] = system: AR; assay: Histochemical analysis of GEO tumors: AR; assay type: in vivo; settings: single agent, after two cycles
Source text: as §3, §4

[7] = system: p27; assay: Histochemical analysis of GEO tumors: p27; assay type: in vivo; settings: single agent
Source text: Tumor specimens from the different groups of mice were examined by histochemical analysis at different time points to evaluate the expression of a variety of biological parameters. […] No other treatment was able to affect RIα expression.
Loda et al. (Nature Medicine 3:231–234 (1997)) discloses that the cyclin-dependent kinase (CDK) inhibitor p27 is […] related to cell entry into S phase and proliferation and that reduction of its expression correlates with poor prognosis in colon cancer patients.

[8] = system: Factor VIII related antigen; assay: Tumor-induced neovascularization (anti-Factor VIII related antigen immunohistochemistry); assay type: in vivo; settings: single agent, vs untreated mice or scramble MBO
Source text: In recent years, the critical role of tumor-induced neovascularization in neoplastic development, progression and metastasis has been elucidated (J. I. Fokman, In: J. Mendelsohn et al., eds., The Molecular Basis of Cancer, pp 206–232, Philadelphia: W B Saunders (1995) . A reliable histologic estimate of novel blood vessels on tumor specimens is the microvessel count (MVC) in the most intense areas of neovascularization. In the present study, tumor-induced neovascularization was quantified by immunohistochemistry using an anti-Factor VIII related antigen monoclonal antibody (N. Weidner, Breast Cancer Res. Treat., 36:169–180 (1995)).

CC(=O)O[C@@]12CO[C@@H]1C[C@H](O)[C@@]1(C)C(=O)[C@H](O)C3=C(C)[C@@H](OC(=O)[C@H](O)[C@@H](NC(=O)OC(C)(C)C)c4ccccc4)C[C@@](O)([C@@H](OC(=O)c4ccccc4)[C@H]21)C3(C)C [docetaxel, reference compound]
inhibition at 10 pM ([1]; Homo sapiens, ZR-75-1, docetaxel 0.01 nM alone (Examples 13, 14)): < 12% | inhibition at 10 pM ([1]; Homo sapiens, ZR-75-1, docetaxel 0.01 nM alone (Examples 21, 22)): < 15% | inhibition at 30 pM ([1]; Homo sapiens, ZR-75-1, docetaxel 0.03 nM alone (Examples 21, 22)): ~40% | inhibition at 0.0001 µM ([1]; Homo sapiens, ZR-75-1, docetaxel 0.1 nM alone (Examples 21, 22)): ~72% | inhibition at 0.0003 µM ([1]; Homo sapiens, ZR-75-1, docetaxel 0.3 nM alone (Examples 21, 22)): ~85% | growth inhibition ([1]; docetaxel alone, doses ranging between 0.01 and 0.3 nM, maximum): up to 80%

Oligo 168: Mismatched hybrid control GCG CGC CTC CTC GCU GGC, SEQ ID NO:5 (GCGCGCCTCCTCGCUGGC; hybrid: 2'-O-methyl ribonucleotide ends, DNA middle, exact positions not given here) [reference compound]
size of the tumor [2]: little ability to keep tumor size at a minimum relative to the hybrid and inverted hybrid oligonucleotides

Oligo 166: Inverted hybrid antisense 18-mer GCG TGC CUC CUC ACT GGC, SEQ ID NO:6 (antisense GCGTGCCUCCUCACTGGC; inverted hybrid: 2'-O-methyl ribonucleotide middle segment, DNA flanks, exact positions not given here)
size of the tumor [2]: smaller from three days after injection onward than the phosphorothioate oligonucleotide 164

CC(=O)O[C@H]1C(=O)[C@@]2(C)[C@H]([C@H](OC(=O)c3ccccc3)[C@]3(O)C[C@H](OC(=O)[C@H](O)[C@@H](NC(=O)c4ccccc4)c4ccccc4)C(C)=C1C3(C)C)[C@]1(OC(C)=O)CO[C@@H]1C[C@@H]2O [paclitaxel, reference compound]
inhibition at 0.001 µM ([3]; Homo sapiens, paclitaxel 1 nM alone): < 5% | inhibition at 0.005 µM ([3]; Homo sapiens, paclitaxel 5 nM alone): ~20% | inhibition at 0.01 µM ([3]; Homo sapiens, paclitaxel 10 nM alone): ~58% | growth inhibition ([3]; paclitaxel alone, doses ranging between 0.1 and 10 nM, maximum): up to 60% | tumor growth ([4]; three cycles (taxol 20 mg/kg/dose i.p.; MBO 10 mg/kg/dose p.o.), FIG. 17A): inhibited tumor growth | survival time ([4]; three cycles, FIG. 17B): slight increase in survival time | expression of TGFα [5]: Unlike taxol, treatment with HYB 165 inhibited the expression of TGF α and AR | expression of AR [6]: Unlike taxol, treatment with HYB 165 inhibited the expression of TGF α and AR | p27 expression [7]: Unlike taxol, HYB 165 alone is able to increase p27 expression | inhibition of staining (microvessel count) [8]: over 60%
